The target in this assay is CDK4 (Homo sapiens, UniProt P11802+Q16531). The assay can be described thus: HiBiT detection of HiBiT-tagged CDK4 protein level in MCF7 cells, 16 hours (Table 8). Format: cell-based. Also noted: expressed in transfected cells; host or cells: MCF7. The conditions noted are these: MCF7 cells stably expressing HiBiT tagged target proteins; for activity at 0.01 µM: 10 nM, read-out: % CDK4 Relative Level (10 nM); for activity at 0.1 µM: 100 nM, read-out: % CDK4 Relative Level (100 nM). Here is the method:
HiBiT detection system quantitatively measures total amounts of HiBiT-tagged proteins using a luminescent based method. MCF7 cells stably expressing HiBiT tagged target proteins were treated with heterobifunctional compounds at indicated concentrations for 16 hours, then lysed with Nano-Glo HiBiT Lytic detection reagents.

The structures appear in SMILES notation.

Chain of CDK4 (P11802 whole entry): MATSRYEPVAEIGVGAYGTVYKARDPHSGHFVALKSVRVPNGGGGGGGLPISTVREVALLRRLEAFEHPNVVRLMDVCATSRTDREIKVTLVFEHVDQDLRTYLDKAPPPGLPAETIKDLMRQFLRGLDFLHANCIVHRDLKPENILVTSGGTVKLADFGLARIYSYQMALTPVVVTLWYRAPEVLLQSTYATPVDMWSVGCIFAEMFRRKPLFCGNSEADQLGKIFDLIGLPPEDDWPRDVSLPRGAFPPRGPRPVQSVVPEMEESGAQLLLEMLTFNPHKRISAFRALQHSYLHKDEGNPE
Chain of CDK4 (P24385 whole entry partner): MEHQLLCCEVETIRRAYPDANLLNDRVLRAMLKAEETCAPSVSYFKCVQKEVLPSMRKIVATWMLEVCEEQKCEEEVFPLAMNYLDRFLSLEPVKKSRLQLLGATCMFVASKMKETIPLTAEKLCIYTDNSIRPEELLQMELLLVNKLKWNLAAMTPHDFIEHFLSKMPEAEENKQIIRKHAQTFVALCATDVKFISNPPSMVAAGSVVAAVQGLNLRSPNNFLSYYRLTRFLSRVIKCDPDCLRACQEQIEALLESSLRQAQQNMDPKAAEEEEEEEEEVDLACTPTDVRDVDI
Chain of CDK4 (Q16531 2-1140 limits assumed): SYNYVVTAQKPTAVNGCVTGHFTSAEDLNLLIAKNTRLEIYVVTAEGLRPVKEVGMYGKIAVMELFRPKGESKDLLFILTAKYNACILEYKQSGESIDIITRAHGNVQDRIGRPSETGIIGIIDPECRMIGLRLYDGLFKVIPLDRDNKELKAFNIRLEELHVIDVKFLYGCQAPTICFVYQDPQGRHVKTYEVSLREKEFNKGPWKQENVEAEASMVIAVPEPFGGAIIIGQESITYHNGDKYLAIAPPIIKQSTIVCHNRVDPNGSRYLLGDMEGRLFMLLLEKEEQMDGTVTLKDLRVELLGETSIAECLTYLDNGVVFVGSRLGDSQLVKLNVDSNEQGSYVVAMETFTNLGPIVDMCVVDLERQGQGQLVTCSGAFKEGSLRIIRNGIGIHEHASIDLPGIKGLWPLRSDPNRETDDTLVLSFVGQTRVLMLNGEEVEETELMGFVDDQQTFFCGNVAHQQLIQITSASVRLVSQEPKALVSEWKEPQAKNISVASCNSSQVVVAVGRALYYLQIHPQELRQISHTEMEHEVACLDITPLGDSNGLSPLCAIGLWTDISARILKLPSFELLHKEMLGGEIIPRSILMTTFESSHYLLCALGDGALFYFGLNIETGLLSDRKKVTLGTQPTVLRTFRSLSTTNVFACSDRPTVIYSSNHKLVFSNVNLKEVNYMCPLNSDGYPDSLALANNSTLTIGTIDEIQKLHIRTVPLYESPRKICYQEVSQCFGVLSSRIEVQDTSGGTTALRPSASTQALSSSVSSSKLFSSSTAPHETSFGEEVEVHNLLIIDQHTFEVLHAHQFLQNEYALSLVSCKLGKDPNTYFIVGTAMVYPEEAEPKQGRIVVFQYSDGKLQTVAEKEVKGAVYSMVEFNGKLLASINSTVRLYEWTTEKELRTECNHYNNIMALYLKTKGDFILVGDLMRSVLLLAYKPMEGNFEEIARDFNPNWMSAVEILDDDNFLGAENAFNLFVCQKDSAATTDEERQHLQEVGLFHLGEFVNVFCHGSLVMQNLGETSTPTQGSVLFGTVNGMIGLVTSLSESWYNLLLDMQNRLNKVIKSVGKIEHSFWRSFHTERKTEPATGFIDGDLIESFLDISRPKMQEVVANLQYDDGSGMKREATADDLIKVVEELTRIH

Consider `CNc1ccc(C(=O)Nc2ccc(N(C)C)nn2)c(NCCC(=O)NC2CCC3(CC2)CC(Nc2ncc4ccc(=O)n(C5CCCC5)c4n2)C3)n1` (stereo not shown) [CPD-673, 2-((3-((2-((8-cyclopentyl-7-oxo-7,8-dihydropyrido[2,3-d]pyrimidin-2-yl)amino)spiro[3.5]nonan-7-yl)amino)-3-oxopropyl)amino)-N-(6-(dimethylamino)pyridazin-3-yl)-6-(methylamino)nicotinamide], for which the activity at 0.01 µM is greater than 85% and the activity at 0.1 µM is greater than 85%.
As to `CNc1ccc(C(=O)Nc2ccc(N(C)C)nn2)c(NCCCCCCCC(=O)NC2CCC(Nc3ncc4ccc(=O)n(C5CCCC5)c4n3)CC2)n1` (stereo not shown) [CPD-671, 2-((8-((4-((8-cyclopentyl-7-oxo-7,8-dihydropyrido[2,3-d]pyrimidin-2-yl)amino)cyclohexyl)amino)-8-oxooctyl)amino)-N-(6-(dimethylamino)pyridazin-3-yl)-6-(methylamino)nicotinamide], the activity at 0.01 µM was greater than 85% and the activity at 0.1 µM was greater than 85%.
On to `CNc1ccc(C(=O)Nc2ccc(N(C)C)nn2)c(NCCCCCCNC(=O)CN2CCN(Cc3ccc(Nc4ncc(F)c(-c5cc(F)c6nc(C)n(C(C)C)c6c5)n4)nc3)CC2)n1` [CPD-612, N-(6-(dimethylamino)pyridazin-3-yl)-2-((6-(2-(4-((6-((5-fluoro-4-(4-fluoro-1-isopropyl-2-methyl-1H-benzo[d]imidazol-6-yl)pyrimidin-2-yl)amino)pyridin-3-yl)methyl)piperazin-1-yl)acetamido)hexyl)amino)-6-(methylamino)nicotinamide], for which the activity at 0.01 µM is greater than 85% and the activity at 0.1 µM is greater than 85%.
For the compound `CNc1ccc(C(=O)Nc2ccc(N(C)C)nn2)c(NCCCCCCCC(=O)N2CCN(c3ccc(Nc4ncc(F)c(-c5cc(F)c6nc(C)n(C(C)C)c6c5)n4)nc3)CC2)n1` [CPD-653, N-(6-(dimethylamino)pyridazin-3-yl)-2-((8-(4-(6-((5-fluoro-4-(4-fluoro-1-isopropyl-2-methyl-1H-benzo[d]imidazol-6-yl)pyrimidin-2-yl)amino)pyridin-3-yl)piperazin-1-yl)-8-oxooctyl)amino)-6-(methylamino)nicotinamide], the activity at 0.01 µM is greater than 85% and the activity at 0.1 µM is greater than 85%.
In the case of `CCc1ccc(C(=O)Nc2ccc(N(C)C)nn2)c(NC2CC3(CC(NC(=O)CN4CCN(Cc5ccc(Nc6ncc7c(C)c(C(C)=O)c(=O)n(C8CCCC8)c7n6)nc5)CC4)C3)C2)c1` (stereo not shown) [CPD-598, 2-((6-(2-(4-((6-((6-acetyl-8-cyclopentyl-5-methyl-7-oxo-7,8-dihydropyrido[2,3-d]pyrimidin-2-yl)amino)pyridin-3-yl)methyl)piperazin-1-yl)acetamido)spiro[3.3]heptan-2-yl)amino)-N-(6-(dimethylamino)pyridazin-3-yl)-4-ethylbenzamide], the activity at 0.01 µM is 55 to 85% and the activity at 0.1 µM was greater than 85%.
With `CNc1ccc(C(=O)Nc2ccc(N(C)C)nn2)c(NCCCCNC(=O)CN2CCN(Cc3ccc(Nc4ncc(F)c(-c5cc(F)c6nc(C)n(C(C)C)c6c5)n4)nc3)CC2)n1` [CPD-610, N-(6-(dimethylamino)pyridazin-3-yl)-2-((4-(2-(4-((6-((5-fluoro-4-(4-fluoro-1-isopropyl-2-methyl-1H-benzo[d]imidazol-6-yl)pyrimidin-2-yl)amino)pyridin-3-yl)methyl)piperazin-1-yl)acetamido)butyl)amino)-6-(methylamino)nicotinamide], the activity at 0.01 µM was greater than 85% and the activity at 0.1 µM was greater than 85%.
In the case of `CNc1ccc(C(=O)Nc2ccc(N(C)C)nn2)c(NCCCCC(=O)NC2CCC(Nc3ncc4ccc(=O)n(C5CCCC5)c4n3)CC2)n1` (stereo not shown) [CPD-668, 2-((5-((4-((8-cyclopentyl-7-oxo-7,8-dihydropyrido[2,3-d]pyrimidin-2-yl)amino)cyclohexyl)amino)-5-oxopentyl)amino)-N-(6-(dimethylamino)pyridazin-3-yl)-6-(methylamino)nicotinamide], the activity at 0.01 µM is greater than 85% and the activity at 0.1 µM is greater than 85%.
As to `CNc1ccc(C(=O)Nc2ccc(N(C)C)nn2)c(NCCCCCCCNC(=O)CN2CCN(c3ccc(Nc4ncc(F)c(-c5cc(F)c6nc(C)n(C(C)C)c6c5)n4)nc3)CC2)n1` [CPD-663, N-(6-(dimethylamino)pyridazin-3-yl)-2-((7-(2-(4-(6-((5-fluoro-4-(4-fluoro-1-isopropyl-2-methyl-1H-benzo[d]imidazol-6-yl)pyrimidin-2-yl)amino)pyridin-3-yl)piperazin-1-yl)acetamido)heptyl)amino)-6-(methylamino)nicotinamide], the activity at 0.01 µM is greater than 85% and the activity at 0.1 µM lay within 55 to 85%.
On to `CNc1ccc(C(=O)Nc2ccc(N(C)C)nn2)c(NCCCCCCCCNC(=O)CN2CCN(Cc3ccc(Nc4ncc(F)c(-c5cc(F)c6nc(C)n(C(C)C)c6c5)n4)nc3)CC2)n1` [CPD-614, N-(6-(dimethylamino)pyridazin-3-yl)-2-((8-(2-(4-((6-((5-fluoro-4-(4-fluoro-1-isopropyl-2-methyl-1H-benzo[d]imidazol-6-yl)pyrimidin-2-yl)amino)pyridin-3-yl)methyl)piperazin-1-yl)acetamido)octyl)amino)-6-(methylamino)nicotinamide], for which the activity at 0.01 µM was greater than 85% and the activity at 0.1 µM is greater than 85%.
For the compound `CNc1ccc(C(=O)Nc2ccc(N(C)C)nn2)c(NCCOCCC(=O)NC2CCC3(CC2)CC(Nc2ncc4ccc(=O)n(C5CCCC5)c4n2)C3)n1` (stereo not shown) [CPD-679, 2-((2-(3-((2-((8-cyclopentyl-7-oxo-7,8-dihydropyrido[2,3-d]pyrimidin-2-yl)amino)spiro[3.5]nonan-7-yl)amino)-3-oxopropoxy)ethyl)amino)-N-(6-(dimethylamino)pyridazin-3-yl)-6-(methylamino)nicotinamide], the activity at 0.01 µM is greater than 85% and the activity at 0.1 µM was greater than 85%.
With `CNc1ccc(C(=O)Nc2ccc(N(C)C)nn2)c(NCCCCCNC(=O)CN2CCN(Cc3ccc(Nc4ncc(F)c(-c5cc(F)c6nc(C)n(C(C)C)c6c5)n4)nc3)CC2)n1` [CPD-611, N-(6-(dimethylamino)pyridazin-3-yl)-2-((5-(2-(4-((6-((5-fluoro-4-(4-fluoro-1-isopropyl-2-methyl-1H-benzo[d]imidazol-6-yl)pyrimidin-2-yl)amino)pyridin-3-yl)methyl)piperazin-1-yl)acetamido)pentyl)amino)-6-(methylamino)nicotinamide], the activity at 0.01 µM was greater than 85% and the activity at 0.1 µM is greater than 85%.
Consider `CC(C)Nc1ccc(C(=O)Nc2ccc(N(C)C)nn2)c(NC2CC3(C2)CN(C(=O)CN2CCN(Cc4ccc(Nc5ncc6cc(C(=O)N(C)C)n(C7CCCC7)c6n5)nc4)CC2)C3)n1` [CPD-563, 7-cyclopentyl-2-((5-((4-(2-(6-((3-((6-(dimethylamino)pyridazin-3-yl)carbamoyl)-6-(isopropylamino)pyridin-2-yl)amino)-2-azaspiro[3.3]heptan-2-yl)-2-oxoethyl)piperazin-1-yl)methyl)pyridin-2-yl)amino)-N,N-dimethyl-7H-pyrrolo[2,3-d]pyrimidine-6-carboxamide], for which the activity at 0.01 µM is greater than 85% and the activity at 0.1 µM was greater than 85%.
For the compound `CNc1ccc(C(=O)Nc2ccc(N(C)C)nn2)c(NCCOCCC(=O)N2CCN(c3ccc(Nc4ncc(F)c(-c5cc(F)c6nc(C)n(C(C)C)c6c5)n4)nc3)CC2)n1` [CPD-654, N-(6-(dimethylamino)pyridazin-3-yl)-2-((2-(3-(4-(6-((5-fluoro-4-(4-fluoro-1-isopropyl-2-methyl-1H-benzo[d]imidazol-6-yl)pyrimidin-2-yl)amino)pyridin-3-yl)piperazin-1-yl)-3-oxopropoxy)ethyl)amino)-6-(methylamino)nicotinamide], the activity at 0.01 µM is greater than 85% and the activity at 0.1 µM was greater than 85%.
Turning to `CNc1ccc(C(=O)Nc2ccc(N(C)C)nn2)c(NCCC(=O)N2CCN(c3ccc(Nc4ncc(F)c(-c5cc(F)c6nc(C)n(C(C)C)c6c5)n4)nc3)CC2)n1` [CPD-648, N-(6-(dimethylamino)pyridazin-3-yl)-2-((3-(4-(6-((5-fluoro-4-(4-fluoro-1-isopropyl-2-methyl-1H-benzo[d]imidazol-6-yl)pyrimidin-2-yl)amino)pyridin-3-yl)piperazin-1-yl)-3-oxopropyl)amino)-6-(methylamino)nicotinamide], the activity at 0.01 µM was greater than 85% and the activity at 0.1 µM is greater than 85%.
With `CNc1ccc(C(=O)Nc2ccc(N(C)C)nn2)c(NCCCCCCCC(=O)NC2CCC3(CC2)CC(Nc2ncc4ccc(=O)n(C5CCCC5)c4n2)C3)n1` (stereo not shown) [CPD-678, 2-((8-((2-((8-cyclopentyl-7-oxo-7,8-dihydropyrido[2,3-d]pyrimidin-2-yl)amino)spiro[3.5]nonan-7-yl)amino)-8-oxooctyl)amino)-N-(6-(dimethylamino)pyridazin-3-yl)-6-(methylamino)nicotinamide], the activity at 0.01 µM was greater than 85% and the activity at 0.1 µM was greater than 85%.
In the case of `CNc1ccc(C(=O)Nc2ccc(N(C)C)nn2)c(NCCCCCCC(=O)NC2CCC3(CC2)CC(Nc2ncc4ccc(=O)n(C5CCCC5)c4n2)C3)n1` (stereo not shown) [CPD-677, 2-((7-((2-((8-cyclopentyl-7-oxo-7,8-dihydropyrido[2,3-d]pyrimidin-2-yl)amino)spiro[3.5]nonan-7-yl)amino)-7-oxoheptyl)amino)-N-(6-(dimethylamino)pyridazin-3-yl)-6-(methylamino)nicotinamide], the activity at 0.01 µM was greater than 85% and the activity at 0.1 µM was greater than 85%.
Regarding `CNc1ccc(C(=O)Nc2ccc(N(C)C)nn2)c(NCCOCCNC(=O)CN2CCN(c3ccc(Nc4ncc5cc(C(=O)N(C)C)n(C6CCCC6)c5n4)nc3)CC2)n1` [CPD-631, 7-cyclopentyl-2-((5-(4-(2-((2-(2-((3-((6-(dimethylamino)pyridazin-3-yl)carbamoyl)-6-(methylamino)pyridin-2-yl)amino)ethoxy)ethyl)amino)-2-oxoethyl)piperazin-1-yl)pyridin-2-yl)amino)-N,N-dimethyl-7H-pyrrolo[2,3-d]pyrimidine-6-carboxamide], the activity at 0.01 µM was greater than 85% and the activity at 0.1 µM was greater than 85%.

These data come from patent US20260297081A1, “COMPOUNDS AND METHODS OF TREATING CANCERS” (Cullgen Inc., priority 2023, published 2026).
